The results in this text go back to PubChem BioAssay (NCI).

“And” between values parts separate entries of the source, which are not always exact repeats. Identical values can stand only once.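 Cells were grown in 96-well plates and exposed to each compound for 48 hours at five concentrations; endpoints were interpolated linearly between bracketing concentrations, or set to the highest concentration if not reached. GI50 is the concentration that inhibits growth by half. TGI is the concentration that stops growth completely.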

Holding throughout (test): DTP human tumour cell line panel, 48 h
Assay [1] concerns SF-295 CNS.
Assay [2] concerns HL-60(TB) leukemia.
In assay [3] the test system is NCI-H522 lung.
For assay [4], the system named is MOLT-4 leukemia.
Assay [5] concerns NCI-H460 lung.
The subject of assay [6] is NCI-H23 lung.
In assay [7] the test system is A498 renal.
Assay [8] relates to DU-145 prostate.
In assay [9] the test system is HS 578T breast.
The subject of assay [10] is MDA-MB-231 breast.

By TGI is commonly meant the concentration at which net growth stops. A lower TGI goes with greater sensitivity of the cells. Turning to `CCCCCCCC1(c2ccc(N)cc2)CCC(=O)NC1=O` (stereo not drawn), the TGI in assay [1] was 88.1 µM; in assay [2], 36.6 µM; in [3], 78.6 µM; in assay [4] it was 65.7 µM; in [5], greater than 100 µM; in assay [6], greater than 100 µM.

`Cc1ccc(C)c(N2C(=O)C(=O)C(c3nc4ccccc4o3)C(=O)C2=O)c1`: the concentration for total growth inhibition (TGI) is greater than 100 µM in assay [1]; 61.3 µM in assay [2]; greater than 100 µM in assay [7]; greater than 100 µM in assay [4]; greater than 100 µM in [5]; greater than 100 µM in assay [6].

Usually GI50 stands for the concentration that inhibits growth by half. On to `Clc1ccc(-c2c3ccc(=[N+]4CCCCC4)cc-3oc3cc(N4CCCCC4)ccc23)cc1`, for which the GI50 in assay [2] was 0.0942 µM; in [7], 0.035 µM; in [4], 0.159 µM; in [8], 0.0632 µM. Also, the TGI in assay [2] was 0.471 µM; in assay [7], 0.15 µM; in assay [4], 0.741 µM; in [8], 0.214 µM.

As to `COc1ccc(-c2ccc(/C=N/n3c(COc4ccccc4Cl)nn(CN4CCOCC4)c3=S)o2)c([N+](=O)[O-])c1`, the GI50 in [1] is 38.1 µM; in assay [2], 17 µM; in assay [3] it was 38.9 µM; in assay [4] it was 19.3 µM; in assay [5], 19.8 µM; in assay [8], 34.1 µM. The GI50 in assay [6] was 22.9 µM; in [9], 33.9 µM. The concentration for total growth inhibition (TGI) in assay [1] is greater than 100 µM; in [2], 39 µM; in [3], greater than 100 µM; in assay [4] it was 51.7 µM; in assay [5], 49 µM; in [8], greater than 100 µM. Also, the concentration for total growth inhibition (TGI) stood at 62.7 µM in [6] and 90.4 µM in [9].

Consider `CCC(C)CC(C)CC(C)/C=C(\C)C1=C(C)CC(C)(O)O1` (stereo not drawn), for which the total growth inhibition concentration (TGI) in assay [2] was 79 µM; in [7], greater than 100 µM; in [3], greater than 100 µM; in [4], greater than 100 µM; in assay [5], greater than 100 µM; in assay [6], greater than 100 µM.

In the case of `Cc1ccc(NC(=O)C(=O)CC(=O)c2c(C)n([O-])c3ccccc3[n+]2=O)cc1C`, the concentration for total growth inhibition (TGI) in assay [1], in assay [2], in assay [7], in assay [3], in [5] and in [6] was greater than 100 µM each time.

On to `Cc1cccc(C(=O)O)c1C(=O)c1cccc2ccccc12`, for which the TGI in assay [1], in [7], in [3], in [4], in assay [5] and in assay [6] was greater than 100 µM in each case.

For the molecule `O=C(C(=O)n1ncc(Cl)c(Cl)c1=O)n1ncc(Cl)c(Cl)c1=O`, the TGI in assay [1] was greater than 100 µM; in assay [2], 22.6 µM; in assay [7] it was greater than 100 µM; in assay [3] it was 28.1 µM; in [4], 43.7 µM; in assay [5] it was greater than 100 µM. Besides, the total growth inhibition concentration (TGI) in assay [6] came to 41.5 µM.

Regarding `COCCOc1cc(C)cc(/C=C(C)/C=C/C2=C(C)CCCC2(C)C)n1`, the TGI in [1], in [7], in assay [3], in assay [4], in assay [5] and in [6] was greater than 100 µM throughout.

For the molecule `CCCCCC(=O)Nc1nc2nc[nH]c2c(=O)[nH]1`, the concentration for total growth inhibition (TGI) in [1], in [2], in assay [7], in assay [3], in assay [4] and in assay [5] was greater than 100 µM each time. In assay [6], this molecule displayed a TGI greater than 100 µM.

`COc1ccc(/C=C/c2c(C(=O)/C=C/c3ccc(C(F)(F)F)cc3)c(C)nc3ccccc23)cc1`: the GI50 in assay [1] was 1.71 µM; in assay [2], 1.92 µM; in assay [7] it was 1.77 µM; in assay [3], 1.67 µM; in assay [4] it was 1.04 µM; in assay [5], 1.87 µM. Besides, the GI50 in assay [8] is 1.76 µM; in [9] it was 2.87 µM. The TGI in [1] is 3.28 µM; in [2], 5.67 µM; in [7], 3.24 µM; in assay [3], 5.69 µM; in assay [4], greater than 100 µM; in assay [5], 4.22 µM. Besides, the concentration for total growth inhibition (TGI) was 3.71 µM in assay [8] and 8.29 µM in [9].

`COc1ccc2nc(C(=O)c3ccccc3)c(C)cc2c1`: the TGI is 9.23 µM in [1]; greater than 100 µM in [2]; 10.3 µM in assay [7]; 5.75 µM in [3]; greater than 100 µM in assay [4]; greater than 100 µM in [5]. In addition, the TGI in assay [6] stood at 11.1 µM.

On to `N#Cc1ccccc1NC(=O)C(=O)C1NC(=S)NC1=O` (stereo not drawn), for which the concentration for total growth inhibition (TGI) in [1], in [2], in [7], in assay [4], in assay [5] and in assay [6] was greater than 100 µM in each case.

As for `CC1OC(=O)C(O)=C1O` (stereo not drawn), the total growth inhibition concentration (TGI) in [1], in [3], in [4], in assay [5] and in assay [6] was greater than 100 µM throughout.

On to `CC(C)c1cc(C(C)C)c(S(=O)(=O)N=[N+]=[N-])c(C(C)C)c1`, for which the TGI in [2], in assay [3], in assay [4], in assay [5] and in assay [6] was greater than 100 µM throughout.

As to `COc1ccc(C2=Nc3ccccc3SC(C)C2)cc1OC` (stereo not drawn), the TGI in assay [1] was 38 µM; in [2], 59.6 µM; in assay [7], 39.8 µM; in assay [3], 32.1 µM; in assay [4] it was 34.8 µM; in [5], 36.3 µM. Moreover, in assay [6], the TGI came to 38.5 µM.

Regarding `COc1cc(/C=C/c2ccc(O)c(OC)c2)cc(OC)c1`, the concentration for total growth inhibition (TGI) in [1] is 54.7 µM; in [2], 78.1 µM; in [7], 84.4 µM; in [4], greater than 100 µM; in assay [5], 52.5 µM; in assay [8], 61.5 µM. For the same molecule, the values for the TGI in assay [6] and in assay [9] were greater than 100 µM and 59.1 µM, respectively.

On to `NC1c2ccccc2Nc2ccccc21`, for which the TGI in assay [1] was 17 µM; in [2], 16.3 µM; in assay [7], 22.8 µM; in [3], 5.2 µM; in assay [4], 8.1 µM; in [5] it was 11.1 µM. This molecule showed a TGI in assay [6] of 17.5 µM.

Turning to `Cc1ccc2nc(NC(=O)C(=O)C(C#N)c3ccc(Cl)cc3)sc2c1` (stereo not drawn), the TGI in assay [1], in [5] and in assay [6] was greater than 50 µM in each case.

With `COc1ccc2oc3c(OC)c(OC)c(OC)cc3c(=O)c2c1`, the concentration for total growth inhibition (TGI) in assay [7], in assay [3], in assay [4], in assay [5] and in assay [6] was greater than 100 µM throughout.

As for `N#CC(C(=O)CCCC(=O)Nc1ccc(Cl)cc1Cl)c1ccccc1` (stereo not drawn), the TGI in assay [1], in assay [2], in assay [4], in assay [5] and in assay [6] was greater than 100 µM in each case.

On to `Cc1ccc(N=C[N-]c2ccc(C)cc2)cc1.Cc1ccc(N=C[N-]c2ccc(C)cc2)cc1.O=C([O-])C(F)(F)F.O=C([O-])C(F)(F)F.[OH3+].[OH3+].[Rh+2].[Rh+2]`, for which the GI50 in assay [1] is 86.8 µM; in assay [3] it was 23.4 µM; in [4], 19 µM; in assay [5], greater than 100 µM; in assay [6], 25.9 µM. Further, the TGI was greater than 100 µM in [1]; 53.2 µM in assay [3]; 42.7 µM in assay [4]; greater than 100 µM in [5]; 70.3 µM in [6].

Consider `COc1cc2c(c(OC)c1OC)-c1ccc(SC)c(=O)cc1[C@@H](NCc1ccc([N+](=O)[O-])cc1)CC2`, for which the TGI in [1] was greater than 100 µM; in [2], 1.49 µM; in [7], 0.0531 µM; in assay [3], 0.0119 µM; in assay [4], greater than 100 µM.

On to `CCCCCC(O)C(O)CCC[C@H](O)[C@H]1CC[C@H]([C@H]2CC[C@H]([C@H](O)CCCCCCCCCCCCC3=C[C@H](C)OC3=O)O2)O1` (stereo partly drawn), for which the total growth inhibition concentration (TGI) amounted to 4.28 µM in assay [2]; 82.9 µM in assay [10]; 23.9 µM in [3]; 31.7 µM in assay [5]; 23.3 µM in assay [6]. Further, the results for the GI50 in [10] and in [5] were 17.6 µM and 1.69 µM, respectively.

Take `CCOC(=O)C(Cc1ccc(N(CCCl)CCCl)cc1)NC(=O)C(Cc1ccccc1)NC=O` (stereo not drawn): the TGI in assay [1] was found to be 0.523 µM; in [2], 0.279 µM; in assay [7], 0.384 µM; in assay [10] it was 0.344 µM; in assay [3], 0.167 µM; in [4], 0.161 µM. In addition, the TGI was 0.604 µM in assay [5], 0.38 µM in assay [8] and 0.399 µM in assay [6].

`CC(C)c1cccc(C(C)C)c1N1C(=O)C(=O)C(c2nc3ccccc3o2)C(=O)C1=O`: the TGI is greater than 100 µM in [1]; greater than 100 µM in assay [2]; greater than 100 µM in [7]; 50.6 µM in assay [3]; greater than 100 µM in assay [5]; greater than 100 µM in assay [6].

Turning to `CC1=C(C(=O)Nc2ccccc2)C(c2ccccc2Cl)C(C(=O)Nc2ccccc2)=C(C)N1`, the TGI in assay [1] is 66.9 µM; in assay [2], 31.8 µM; in assay [7], 58.5 µM; in assay [3] it was 35.4 µM; in [4], 60.1 µM; in [6], 71.7 µM.

Take `O=C(O)CCNS(=O)(=O)c1ccc2ccccc2c1`: the TGI in assay [1], in [2], in assay [7], in [3], in assay [4] and in assay [5] was greater than 100 µM in each case. In assay [6], this molecule gave a concentration for total growth inhibition (TGI) greater than 100 µM.

With `Cc1c(C(=O)O)n(C)c(=O)n(C)c1=O`, the concentration for total growth inhibition (TGI) in assay [1], in assay [2], in assay [7], in [3], in assay [4] and in assay [5] was greater than 100 µM throughout. In assay [6], this molecule came in with a total growth inhibition concentration (TGI) greater than 100 µM.

Consider `CC1=C(SC#N)S(=O)(=O)N(c2ccccc2)C(C)=C1SC#N`, for which the TGI is 67.1 µM in [1]; greater than 100 µM in [2]; 92.1 µM in assay [7]; greater than 100 µM in assay [3]; 57.8 µM in [4]; greater than 100 µM in [5]. Moreover, the TGI in [6] is greater than 100 µM.

Consider `Cc1cc(-c2c(F)cc3c4nn([C@H]5CC[C@@H](N(C)C)CC5)c(=O)c-4cn(C4CC4)c3c2F)cc(C)n1`, for which the total growth inhibition concentration (TGI) was 0.717 µM in assay [1]; 0.0322 µM and 0.235 µM in assay [2]; 0.0558 µM and 0.471 µM in assay [7]; 0.144 µM and 0.771 µM in [3]; 0.273 µM in assay [5]; 8.71 µM in assay [8]. In addition, the total growth inhibition concentration (TGI) in [6] is 0.079 µM and 0.554 µM; in assay [9], 6.25 µM. For the same molecule, the concentration for 50% growth inhibition (GI50) in [2] is 0.00306 µM; in assay [7], 0.141 µM; in assay [3] it was 0.0325 µM; in assay [4], 0.002 µM; in [6] it was 0.0207 µM.

With `COC1=CC(C2c3cc4c(cc3[C@@H](Nc3ccc(F)cc3)C3COC(=O)[C@H]23)OCO4)=CC(=O)C1=O` (stereo partly drawn), the total growth inhibition concentration (TGI) in [1] was 11.8 µM; in [2], greater than 21.4 µM; in assay [7] it was 16 µM; in assay [3], 14.9 µM; in [4], 14.5 µM; in assay [5], 14.9 µM. Moreover, the TGI in assay [6] came out at 9.97 µM.

Take `C1CCCCc2nc3c(nc2CCC1)c1nc2c(nc1c1nc4c(nc31)CCCCCCCC4)CCCCCCCC2`: the TGI in [1], in assay [2], in assay [7], in [4], in assay [5] and in assay [6] was greater than 100 µM each time.
